# Values joined by “and” are separate entries in the source; they are usually repeats but may differ in a detail not shown here. Identical values can stand only once.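 Assay format: 96-well plates, 48-hour exposure. GI50 is the concentration that inhibits growth by half. TGI is the concentration that stops growth completely.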
# How the values were obtained:
# Assay in all cases: NCI tumour cell line growth inhibition, 48 h
# CCRF-CEM leukemia = tested on: CCRF-CEM leukemia
# SK-MEL-5 melanoma = tested on: SK-MEL-5 melanoma
# NCI/ADR-RES ovarian = tested on: NCI/ADR-RES ovarian
# HCC-2998 colon = tested on: HCC-2998 colon
# TK-10 renal = tested on: TK-10 renal
# SF-295 CNS = tested on: SF-295 CNS
# SK-OV-3 ovarian = tested on: SK-OV-3 ovarian
# UO-31 renal = tested on: UO-31 renal
# MOLT-4 leukemia = tested on: MOLT-4 leukemia
# HS 578T breast = tested on: HS 578T breast
SMILES,GI50 (CCRF-CEM leukemia),TGI (CCRF-CEM leukemia),GI50 (SK-MEL-5 melanoma),TGI (SK-MEL-5 melanoma),TGI (NCI/ADR-RES ovarian),GI50 (HCC-2998 colon),TGI (HCC-2998 colon),GI50 (TK-10 renal),TGI (TK-10 renal),GI50 (SF-295 CNS),TGI (SF-295 CNS),GI50 (SK-OV-3 ovarian),TGI (SK-OV-3 ovarian),GI50 (UO-31 renal),TGI (UO-31 renal),GI50 (MOLT-4 leukemia),TGI (MOLT-4 leukemia),GI50 (HS 578T breast),TGI (HS 578T breast),GI50 (NCI/ADR-RES ovarian)
COCCn1c2c([n+](Cc3cnccn3)c1C)C(=O)c1ccccc1C2=O,0.0207 µM,0.345 µM,< 0.01 µM,0.0162 µM,> 100 µM,< 0.01 µM,0.0373 µM,0.0352 µM,0.222 µM,0.027 µM,0.0843 µM,0.0588 µM,0.573 µM,0.844 µM,> 78.5 µM,< 0.01 µM,0.034 µM,0.302 µM,10.7 µM,
COc1cc2c(cc1[N+](=O)[O-])C(=O)C(Br)(Br)CCC2,,3.35 µM,,3.77 µM,7.31 µM,,32.5 µM,,9.72 µM,,19.4 µM,,9.41 µM,,3.23 µM,,5.95 µM,,23.2 µM,
O=C1OCC2=C1C(c1cccc(Cl)c1)c1cc3c(cc1N2CCO)CCC3 (stereo not given),0.0416 µM,14.1 µM,0.0291 µM,0.28 µM,0.108 µM,0.0922 µM,2.93 µM,0.0464 µM,16.3 µM,0.0301 µM,11.9 µM,0.0414 µM,7.8 µM,0.0515 µM,14.2 µM,0.192 µM,20.3 µM,0.0453 µM,22.2 µM,0.0289 µM
c1ccc(CC(Nc2cccnc2)c2ccccc2)cc1 (stereo not given),,46.2 µM,,29.4 µM,68.2 µM,,39.9 µM,,94.9 µM,,43.3 µM,,> 100 µM,,45 µM,,47.7 µM,,95.2 µM,
CC/C(=C(/c1ccc(OCCN(C)C)cc1)c1ccc(OC(=O)CCCCCCCCC(=O)c2c(C)[nH]c(/C=C3\N=C(c4ccc[nH]4)C=C3OC)c2C)cc1)c1ccccc1,0.768 µM,> 100 µM,1.61 µM,3.2 µM,> 100 µM,> 100 µM,> 100 µM,21 µM,> 100 µM,,,> 100 µM,> 100 µM,4.45 µM,> 100 µM,5.13 µM,> 100 µM,4.74 µM,85 µM,31.7 µM
COC(=O)c1cccc(NC(=O)c2ccc(NC3=C(Cl)C(=O)N(Cc4ccccc4)C3=O)cc2)c1,,,16.5 µM,34 µM,37.6 µM,2.04 µM,3.77 µM,23.4 µM,63.4 µM,17.6 µM,57.8 µM,84 µM,> 100 µM,1.7 µM,3.31 µM,12.5 µM,56.5 µM,22 µM,69.4 µM,15.9 µM
CC1(C)C(CC(=O)O)CCCC1CC(=O)O (stereo not given),,> 100 µM,,> 100 µM,> 100 µM,,,,> 100 µM,,> 100 µM,,> 100 µM,,> 100 µM,,> 100 µM,,> 100 µM,
Cc1c(C(=O)c2ccccc2)[n+](=O)c2cc(F)c(F)cc2n1[O-],1.18 µM,2.89 µM,2.03 µM,4.24 µM,3.23 µM,,,1.36 µM,17.5 µM,1.95 µM,3.46 µM,3.7 µM,12.9 µM,2.04 µM,4.13 µM,1.04 µM,80.4 µM,2.08 µM,4.68 µM,1.76 µM
O=C1c2ccc3c4c(ccc(c24)C(=O)N1CCNCc1ccccc1)C(=O)N(CCNCc1ccccc1)C3=O,2.51 µM,> 100 µM,1.39 µM,2.68 µM,4.94 µM,1.74 µM,3.15 µM,2.93 µM,> 100 µM,1.78 µM,5.2 µM,20.9 µM,45.4 µM,,,3.96 µM,> 100 µM,1.83 µM,5.27 µM,1.81 µM
CC1[C@@H]2CC=C3[C@H]4CCC5Cc6nc7c(nc6C[C@@]5(C)C4CC(=O)[C@]32CO[C@]12OC(C)(C)CC2O)CC1CC[C@@H]2C3=C[C@H]4O[C@@]5(O[C@@](C)(CO)C[C@@H]5O)C(C)[C@@]4(O)[C@]3(C)[C@@H](O)CC2[C@]1(C)C7 (stereo not given in full),0.000309 µM and 0.000365 µM,0.0114 µM and 0.00453 µM,0.00235 µM and 0.00215 µM,0.022 µM and 0.146 µM,0.561 µM and > 3.65 µM,0.292 µM,0.912 µM and > 3.65 µM,,0.576 µM,0.000124 µM and < 0.000365 µM,0.000434 µM and < 0.000365 µM,0.00138 µM and 0.00234 µM,0.0239 µM and 0.073 µM,,,0.000203 µM and 0.000365 µM,0.00156 µM and 0.00157 µM,0.000112 µM,0.00137 µM,
Nc1cc(N)c2nc(NCCc3ccc(Cl)c(Cl)c3)cnc2c1,2.02 µM,5.05 µM,13.8 µM,27.1 µM,39.7 µM,,,18.5 µM,33.3 µM,15.3 µM,29.6 µM,17.1 µM,32 µM,6.3 µM,20.3 µM,2.5 µM,8.22 µM,23.5 µM,56.9 µM,20.5 µM
CN1CCN(CCC=C2c3ccccc3Sc3ccc(S(=O)(=O)N(C)C)cc32)CC1,3.12 µM and 4.36 µM,20.1 µM and 23 µM,1.58 µM,2.95 µM and 3.02 µM,26.5 µM and 37.5 µM,1.55 µM and 2.57 µM,3.21 µM and 6.84 µM,2.22 µM and 7.92 µM,5.05 µM and 23.8 µM,,,9.22 µM and 13.6 µM,24.7 µM and 30.7 µM,3.46 µM and 4.23 µM,25.1 µM and 21.1 µM,2.91 µM and 2.22 µM,7.95 µM and 7.1 µM,3.4 µM and 3 µM,23.2 µM and 14.8 µM,5.5 µM and 13.2 µM
O=C(Nc1cccc(-n2cc(-c3ccncc3)c(-c3ccc(Cl)c(O)c3)n2)c1)Nc1ccc(Cl)c(Cl)c1,1.03 µM,> 32.5 µM,0.57 µM,1.16 µM,> 32.5 µM,2.89 µM,13.9 µM,1.91 µM,> 32.5 µM,,,1.2 µM,> 32.5 µM,1.25 µM,> 32.5 µM,1.38 µM,> 32.5 µM,0.785 µM,3.15 µM,2.74 µM

# — PubChem BioAssay (NCI)
